Results taken from PMC10578352, “Identification of a Protein Arginine Methyltransferase 7 (PRMT7)/Protein Arginine Methyltransferase 9 (PRMT9) Inhibitor” (Journal of Medicinal Chemistry, 2023).

Tests used:
PRMT7 = biological target: T1, PRMT7 (Homo sapiens, UniProt Q9NVM4); parameters: method as in PMID 35482954; conditions: heatmap of Figure 2; cited from earlier work
T1 construct: PRMT7 (residues 2–692, C-terminus); with an N-terminal His-tag; His (N); purchased Reaction Biology Corporation
T1 sequence (Q9NVM4 2-692): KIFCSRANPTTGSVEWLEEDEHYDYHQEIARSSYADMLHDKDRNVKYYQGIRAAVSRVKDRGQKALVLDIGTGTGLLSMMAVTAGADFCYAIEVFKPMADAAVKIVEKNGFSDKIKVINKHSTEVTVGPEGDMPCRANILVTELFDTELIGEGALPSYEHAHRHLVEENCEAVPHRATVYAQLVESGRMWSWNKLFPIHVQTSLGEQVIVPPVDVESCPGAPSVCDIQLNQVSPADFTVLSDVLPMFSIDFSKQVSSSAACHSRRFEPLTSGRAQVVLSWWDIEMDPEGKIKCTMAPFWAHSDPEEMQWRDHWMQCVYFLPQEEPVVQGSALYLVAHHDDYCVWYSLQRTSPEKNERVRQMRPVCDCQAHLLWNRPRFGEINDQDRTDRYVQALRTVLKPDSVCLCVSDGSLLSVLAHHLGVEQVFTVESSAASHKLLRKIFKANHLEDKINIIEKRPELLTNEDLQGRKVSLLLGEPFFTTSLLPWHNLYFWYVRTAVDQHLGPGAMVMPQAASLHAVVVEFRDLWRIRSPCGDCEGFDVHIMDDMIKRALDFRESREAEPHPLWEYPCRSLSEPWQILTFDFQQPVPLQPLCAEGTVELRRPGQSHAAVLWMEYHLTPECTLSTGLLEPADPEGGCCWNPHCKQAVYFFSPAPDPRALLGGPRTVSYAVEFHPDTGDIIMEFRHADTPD

SET7/9/KMT7 = biological target: T2, SET7/9/KMT7 (Homo sapiens, UniProt Q8WTS6); assay: HotSpot KMT activity assay, SET7/9; type: biochemical; conditions: read-out: % SET7/9 residual activity
T2 construct: the human recombinant SET7/9 (residues 2–366, C-terminus); GST (N); His (C); purchased Reaction Biology Corporation
T2 sequence (Q8WTS6 2-366): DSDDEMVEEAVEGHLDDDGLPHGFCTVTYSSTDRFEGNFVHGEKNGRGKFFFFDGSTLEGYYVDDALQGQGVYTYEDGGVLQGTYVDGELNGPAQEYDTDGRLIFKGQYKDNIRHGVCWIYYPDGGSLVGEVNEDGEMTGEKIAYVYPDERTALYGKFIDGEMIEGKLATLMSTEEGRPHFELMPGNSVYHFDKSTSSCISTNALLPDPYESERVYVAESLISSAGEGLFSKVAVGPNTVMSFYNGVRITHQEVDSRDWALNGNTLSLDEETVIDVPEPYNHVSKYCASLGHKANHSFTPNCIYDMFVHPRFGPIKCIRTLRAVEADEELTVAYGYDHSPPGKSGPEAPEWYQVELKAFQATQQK
Source text: ; MW = 35.4 kDa; Genbank Accession # NM_018489), or the human recombinant EZH2-containing five-member polycomb repressive complex 2 (including EZH2 residues 2–746, AEBP2 2–517, EED 2–441, RbAp48 2–425, SUZ12 2–739; all full-length; with N-terminal Flag-tag on EED and N-terminal His-tag on all others; MW = 333.8 kDa; Genbank Accession # NM_001203247, NM_001114176, NM_003797, NM_005610, NM_015355), or the human recombinant G9a (residues 913–1193, C-terminus; with an N-terminal His-tag; MW = 34.6 kDa; Genbank Accession # NM_006709.3), or the human recombinant MLL1 complex (including MLL1 residues 3745–3969, C-terminus, WDR5 22–334, C-terminus, RbBP5 1–538, C-terminus, ASH2L 2–534, C-terminus, DPY-30 1–99, C-terminus; N-terminal His-tag on all subunits; MW = 212.0 kDa; Genbank Accession # NM_005933, NM_017588, NM_005057, NM_001105214, NM_0325742), or the human recombinant SET7/9 (residues 2–366, C-terminus; with a N-terminal GST-tag and a C-terminal His-tag; MW = 68.5 kDa; Genbank Accession # NM_030648), or the human recombinant SMYD3 (residues 2–428, C-terminus; C-terminal His-tag; MW = 50.1 kDa; Genbank Accession # NM_001167740), or the human recombinant SUV39H2 (residues 46–410, C-terminus; N-terminal fusion protein with a C-terminal His-tag; MW = 98.8 kDa; GenBank Accession No. NM_001193424), or the human recombinant DOT1L (residues 1–416; N-terminal GST-tag; MW = 80.0 kDa; Genbank Accession # NM_032482) was added to a solution of the proper substrate (oligo nucleosomes for ASH1L, MLL1 complex, and DOT1L, final concentration 0.05 mg/mL; core histone for EZH2 complex and SET7/9, final concentration 0.05 mg/mL; histone H3 for SUV39H2, final concentration 5 μM; histone H3 1–21 for G9a, final concentration 2.5 μM) in freshly prepared reaction buffer (50 mM Tris-HCl (pH 8.5), 5 mM MgCl2, 50 mM NaCl, 1 mM DTT, 1 mM PMSF, 1% DMSO) and gently mixed. […] After incubation for 60 min at 30 °C, the reaction mixture was delivered to filter paper for detection (as assessed by scintillation). […] Values obtained for each compound are mean ± SD determined for two separate experiments.

[1] = biological target: T3, EZH2/KMT6 (5 component complex) (Homo sapiens, UniProt Q15910); assay: HotSpot KMT activity assay, EZH2; type: biochemical; conditions: read-out: % EZH2 residual activity
T3 construct: including EZH2 residues 2–746, AEBP2 2–517, EED 2–441; His (N); purchased Reaction Biology Corporation
T3 sequence (Q15910 2-746): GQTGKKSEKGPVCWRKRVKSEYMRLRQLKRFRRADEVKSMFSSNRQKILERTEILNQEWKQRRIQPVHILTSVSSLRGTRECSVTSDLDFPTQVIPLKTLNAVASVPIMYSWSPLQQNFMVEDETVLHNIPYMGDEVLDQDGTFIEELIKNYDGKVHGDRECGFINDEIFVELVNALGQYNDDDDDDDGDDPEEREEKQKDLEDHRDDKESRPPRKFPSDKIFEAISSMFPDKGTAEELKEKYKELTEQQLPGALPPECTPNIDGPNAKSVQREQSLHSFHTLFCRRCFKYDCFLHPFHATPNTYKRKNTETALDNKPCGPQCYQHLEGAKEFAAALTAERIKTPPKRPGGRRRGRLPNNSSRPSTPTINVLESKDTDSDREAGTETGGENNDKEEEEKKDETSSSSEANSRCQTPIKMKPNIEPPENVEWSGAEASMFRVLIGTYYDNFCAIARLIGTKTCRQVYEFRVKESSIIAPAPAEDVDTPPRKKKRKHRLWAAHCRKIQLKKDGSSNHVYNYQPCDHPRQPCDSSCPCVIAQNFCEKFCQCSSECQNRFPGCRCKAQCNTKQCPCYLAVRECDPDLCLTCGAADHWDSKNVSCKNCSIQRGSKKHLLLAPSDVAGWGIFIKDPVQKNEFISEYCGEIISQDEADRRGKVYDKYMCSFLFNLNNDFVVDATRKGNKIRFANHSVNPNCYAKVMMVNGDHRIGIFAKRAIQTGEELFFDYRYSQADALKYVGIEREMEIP
T3 sequence (Q6ZN18 2-517 partner limits assumed): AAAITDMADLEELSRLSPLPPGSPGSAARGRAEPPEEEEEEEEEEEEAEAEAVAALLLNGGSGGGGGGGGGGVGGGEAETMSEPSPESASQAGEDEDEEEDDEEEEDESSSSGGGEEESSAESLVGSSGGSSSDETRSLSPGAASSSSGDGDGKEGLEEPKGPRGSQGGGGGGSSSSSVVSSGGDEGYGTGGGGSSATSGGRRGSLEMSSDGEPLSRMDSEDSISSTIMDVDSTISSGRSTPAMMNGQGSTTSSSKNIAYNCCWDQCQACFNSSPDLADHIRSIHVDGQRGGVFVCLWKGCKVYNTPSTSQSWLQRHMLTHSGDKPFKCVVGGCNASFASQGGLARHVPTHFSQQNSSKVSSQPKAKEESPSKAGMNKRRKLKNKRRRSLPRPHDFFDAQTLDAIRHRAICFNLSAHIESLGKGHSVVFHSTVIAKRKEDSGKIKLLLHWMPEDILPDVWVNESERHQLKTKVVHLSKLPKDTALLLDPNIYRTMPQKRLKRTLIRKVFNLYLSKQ
T3 sequence (O75530 2-441 partner limits assumed): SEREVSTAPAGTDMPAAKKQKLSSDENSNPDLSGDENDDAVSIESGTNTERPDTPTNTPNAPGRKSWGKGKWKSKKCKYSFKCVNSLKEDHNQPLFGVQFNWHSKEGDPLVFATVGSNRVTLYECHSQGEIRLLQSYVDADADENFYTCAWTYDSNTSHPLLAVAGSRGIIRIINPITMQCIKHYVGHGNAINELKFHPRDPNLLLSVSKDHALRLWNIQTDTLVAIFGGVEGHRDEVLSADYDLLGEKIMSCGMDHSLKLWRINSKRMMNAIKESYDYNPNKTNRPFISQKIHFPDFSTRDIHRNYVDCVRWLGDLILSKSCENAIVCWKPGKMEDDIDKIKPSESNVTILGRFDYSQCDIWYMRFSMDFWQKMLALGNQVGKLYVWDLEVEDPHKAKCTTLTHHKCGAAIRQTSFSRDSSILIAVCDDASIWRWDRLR
T3 sequence (Q09028 2-425 partner limits assumed): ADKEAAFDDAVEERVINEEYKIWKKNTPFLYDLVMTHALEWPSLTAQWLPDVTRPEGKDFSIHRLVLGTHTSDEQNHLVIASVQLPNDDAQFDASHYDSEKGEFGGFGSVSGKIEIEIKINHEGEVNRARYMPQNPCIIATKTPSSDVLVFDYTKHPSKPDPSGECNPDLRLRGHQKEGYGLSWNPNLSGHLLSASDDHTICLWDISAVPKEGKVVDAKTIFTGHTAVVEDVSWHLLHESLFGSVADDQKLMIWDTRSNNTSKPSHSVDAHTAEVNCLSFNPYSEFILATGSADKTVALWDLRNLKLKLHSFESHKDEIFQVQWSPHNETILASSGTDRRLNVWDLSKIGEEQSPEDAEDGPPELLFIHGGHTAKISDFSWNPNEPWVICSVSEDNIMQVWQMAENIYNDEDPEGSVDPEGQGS
T3 sequence (Q15022 2-739 partner limits assumed): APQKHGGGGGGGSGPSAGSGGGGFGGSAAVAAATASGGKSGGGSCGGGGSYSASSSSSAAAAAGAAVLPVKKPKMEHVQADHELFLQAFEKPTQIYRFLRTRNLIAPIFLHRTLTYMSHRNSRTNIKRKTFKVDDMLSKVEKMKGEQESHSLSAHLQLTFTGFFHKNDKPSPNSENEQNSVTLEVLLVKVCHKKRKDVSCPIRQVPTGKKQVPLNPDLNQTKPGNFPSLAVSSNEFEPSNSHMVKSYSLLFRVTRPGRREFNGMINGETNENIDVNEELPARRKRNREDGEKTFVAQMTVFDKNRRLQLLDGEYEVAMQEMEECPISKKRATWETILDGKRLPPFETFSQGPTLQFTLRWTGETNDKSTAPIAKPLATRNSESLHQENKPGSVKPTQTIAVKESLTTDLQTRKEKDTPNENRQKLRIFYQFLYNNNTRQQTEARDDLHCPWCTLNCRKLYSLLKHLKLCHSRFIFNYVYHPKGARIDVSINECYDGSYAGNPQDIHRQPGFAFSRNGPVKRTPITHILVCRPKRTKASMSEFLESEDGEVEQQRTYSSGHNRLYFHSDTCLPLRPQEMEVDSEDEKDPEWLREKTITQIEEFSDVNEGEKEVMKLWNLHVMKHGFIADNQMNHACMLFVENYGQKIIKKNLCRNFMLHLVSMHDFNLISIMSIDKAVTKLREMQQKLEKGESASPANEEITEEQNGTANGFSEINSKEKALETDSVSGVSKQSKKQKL
Experimental: Then, ^3H-SAM (final concentration 1 μM) was delivered into the reaction mixture to initiate the reaction. After incubation for 60 min at 30 °C, the reaction mixture was delivered to filter paper for detection (as assessed by scintillation). […] No inhibitor control (DMSO) was considered as showing 100% enzyme activity. Data were analyzed using Excel and GraphPad Prism 6.0 software (GraphPad Software Inc., San Diego, CA). Values obtained for each compound are mean ± SD determined for two separate experiments.

Row | remaining activity at 10 µM (SET7/9/KMT7; 10 μM) [%] | remaining activity at 100 µM (SET7/9/KMT7; 100 μM) [%] | remaining activity at 10 µM ([1]; 10 μM) [%] | remaining activity at 100 µM ([1]; 100 μM) [%] | Compound | IC50 (PRMT7) [nM]
1 |  |  |  |  | COC(=O)c1cc(O)c2cc(NC(=O)NCCCNC(=N)NC[C@H]3O[C@@H](n4cnc5c(N)ncnc54)[C@H](O)[C@@H]3O)ccc2c1 [1a] | 315
2 | 86.3 ± 1.4 | 53.33 ± 0.38 | 104.5 ± 0.99 | 77.6 ± 3.43 | COC(=O)c1cc(O)c2cc(NC(=O)NCCCNC(=N)NC[C@H]3O[C@@H](n4cnc5c(N)ncnc54)[C@H](O)[C@@H]3O)cc(C(F)(F)F)c2c1 [1j, Methyl 6-(3-(3-(3-(((2R,3S,4R,5R)-5-(6-Amino-9H-purin-9-yl)-3,4-dihydroxytetrahydrofuran-2-yl)methyl)guanidino)propyl)ureido)-4-hydroxy-8-(trifluoromethyl)-2-naphthoate] | 
